The values below are quoted from earlier work in article PMC10125900 (The Journal of General Physiology, 2023).

One data set has as its system GluN3A ABD. The settings on record: ref Furukawa and Gouaux, 2003; Yao and Mayer, 2006.
The target in another data set is GluN1/2A–D receptors. The settings on record: read-out: glycine potency at GluN1, EC50; ref Hansen et al., 2021.
For another data set, the system named is GluN1^FA+TL/3A. The settings on record: read-out: glycine potency at GluN3A, EC50; ref Kvist et al., 2013a.

Turning to `NCC(=O)O` [glycine], in the data set with GluN3A ABD, the “higher affinity for isolated GluN3A ABD compared to isolated GluN1 ABD” value is on record as 650 fold. The values for the EC50 at GluN1/2A–D receptors and in the data set with GluN1^FA+TL/3A were 0.1 to 1 µM and 60 µM, respectively.
